How the values were obtained:
α-glucosidase [1] = settings: cited from earlier work
[2] = biological target: α-glucosidase from Saccharomyces cerevisiae (Saccharomyces cerevisiae, UniProt P53341); assay: Inhibitory activity assay for yeast α-glucosidase (pNPG substrate); format: biochemical
Protocol: The inhibitory activity of α-glucosidase from Saccharomyces cerevisiae (Sigma-Aldrich, Tokyo, Japan) of the isolation compounds was determined using a previously reported procedure with modifications. p-Nitrophenyl α-glucopyranoside (pNPG) (Sigma-Aldrich, Tokyo, Japan) was used as a substrate. Other chemicals used were of analytical grade. […] Then, 40 µL of 3 mM pNPG solution was added, and the mixture was incubated at 37 °C for 20 min. The reaction was stopped by adding a solution of Na2CO3 (0.1 M, 200 µL), and the absorbance (at 405 nm) of the resulting solution was measured via an Epoch microplate reader (Biotech, Tokyo, Japan). All experiments were performed in three independent replicates. The inhibition of isolated compounds on α-glucosidase was calculated as follows:(2) Inhibition (%)=(1−A1/A0)×100 where A0 is the absorbance of the control, and A1 is the absorbance of the propolis samples. The IC50 values were determined as the half-maximal inhibitory concentration of the inhibitor (isolated compound) which provides 50% inhibition.

[3] = test system: α-glucosidase from the rat small intestine; assay: Inhibitory activity assay for rat intestinal α-glucosidase; format: biochemical; settings: for IC50: rat small intestine α-glucosidase, means ± SEs, n = 3, ND: not detected, isolated compounds tested at 0.1–10 µg/mL
Protocol: In a centrifuge tube at 4 °C, 200 mg of rat intestine acetone granules (Sigma-Aldrich, Tokyo, Japan) was placed in 8 mL of physiological saline (0.9 g of NaCl was dissolved in 100 mL pure water). The resulting suspension was homogenized with sonication equipment (Branson, Danbury, CT, USA) for 60 s (ultrasonic treatment cycles: 50, output control: 5) in an ice bath. The resulting homogenate was centrifuged (14,400× g, −21 °C for 20 min) with a high-speed refrigerated centrifuge (Himac CR21N, Hitachi Koki Co, Ltd., Tokyo, Japan). The resulting supernatant was used as an enzyme preparation, and stored at −30 °C until use. Then the measurement of inhibitory activity of isolated compounds against α-glucosidase from the rat small intestine followed the method used to measure the activity of yeast enzymes (S. cerevisiae). The concentration of the isolated compounds used is 0.1–10 µg/mL (0.2–23 µM).

α-glucosidase [4] = biological target: α-glucosidase (Saccharomyces cerevisiae, UniProt P53341); assay: Determination of inhibitory type by kinetic analysis (Lineweaver–Burk, Dixon plots); format: biochemical; settings: for Inhibition Mode: Lineweaver–Burk plot, inhibitor 0, 0.2, 2 µg/mL, p-NPG substrate; for Ki’: mixed inhibition, affinity for enzyme–substrate
Protocol: Inhibitory mechanisms of isolated triterpenes against α-glucosidase at some concentrations (0, 0.2, and 2 µg/mL) were analyzed by the Lineweaver–Burk plot (Figure 2 and Figure 3).
The inhibition activity of isolated triterpenes against α-glucosidase was measured with different concentrations (0, 1, 2.5, 5, and 10 mM) of p-NPG as a substrate in the presence or absence of different concentrations (0, 0.2, and 2 µg/mL) of the compounds. The mode of inhibition was then determined by Lineweaver–Burk plot analysis, which was calculated using Michaelis–Menten kinetics. Inhibition constants (Ki) were determined by analysis of Dixon plots and plots of the Y-intercept of the Lineweaver–Burk plot versus the inhibitor [44, 49]. All data are expressed as means ± standard errors of triplicate determinations.

[5] = DPPH free radical scavenging activity; settings: means ± SEs, n = 3; for DPPH IC50 / IC50: isolated compounds
Protocol: The antioxidative activities of the fractions were assayed for the scavenging of 2,2-diphenyl-1-picrylhydrazyl (DPPH) (Sigma-Aldrich, Darmstadt, Germany). Free radicals were assayed using a previously reported method [48] with some modifications. The fractions of EEP, isolated compounds and Trolox (Sigma-Aldrich, Darmstadt, Germany) were dissolved in methanol to make a 50 ppm solution. Each of the test sample solutions (0, 20, 40, 60, 80, and 100 µL) were added into a mixture (0.9 mL) of 0.4 mM DPPH solution, 20% methanol aqueous solution, and 0.2 M MES (2-(N-morpholino) ethanesulfonic acid) (Dojindo, Wako Junyaku Kogyo Co., Ltd., Osaka, Japan) buffer solution (1:1:1). The resulting mixtures were shaken on a vortex mixer and allowed to stand for 20 min. The absorbance of the remaining DPPH was measured with a microplate reader (Biotech, Tokyo, Japan) at 520 nm. […] The inhibitory concentration that results in 50% scavenging of DPPH radicals (IC50) was estimated based on the plot of inhibition versus the final concentration of the propolis samples. The results are expressed in µg Trolox Equivalents (TE) per mL.

α-glucosidase (Saccharomyces cerevisiae, UniProt P53341), sequence (P53341 whole entry): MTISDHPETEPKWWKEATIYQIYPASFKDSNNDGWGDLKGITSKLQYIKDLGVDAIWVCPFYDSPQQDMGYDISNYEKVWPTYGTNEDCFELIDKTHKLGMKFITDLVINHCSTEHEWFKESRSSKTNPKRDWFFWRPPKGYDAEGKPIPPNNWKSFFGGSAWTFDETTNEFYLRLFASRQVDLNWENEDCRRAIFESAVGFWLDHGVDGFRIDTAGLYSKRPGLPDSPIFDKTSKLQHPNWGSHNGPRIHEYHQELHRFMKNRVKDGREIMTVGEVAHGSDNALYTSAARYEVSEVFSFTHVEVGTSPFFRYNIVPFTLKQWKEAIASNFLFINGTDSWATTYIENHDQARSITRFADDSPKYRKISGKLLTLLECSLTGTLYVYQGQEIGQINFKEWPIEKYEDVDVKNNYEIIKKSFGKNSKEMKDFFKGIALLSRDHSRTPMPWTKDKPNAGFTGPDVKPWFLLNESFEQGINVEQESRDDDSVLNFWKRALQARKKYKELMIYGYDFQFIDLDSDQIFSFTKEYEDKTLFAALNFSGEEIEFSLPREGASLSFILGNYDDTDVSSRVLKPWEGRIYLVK
α-glucosidase from Saccharomyces cerevisiae, sequence (P53341 whole entry): as above

Structure (SMILES) | inhibitory activity against α-glucosidase from the rat small intestine, in words [3] | Inhibition Mode (α-glucosidase [4]) | Ki’ (α-glucosidase [4]) | DPPH IC50 [5] | IC50 [5] | also measured
C=C(CC[C@@H](C)[C@H]1CC[C@@]2(C)[C@@H]3CC[C@H]4C(C)(C)C(=O)CC[C@@]45C[C@@]35CC[C@]12C)C(C)C [24-methylenecycloartenone] | – | – | – | – | – | IC50 (α-glucosidase [1]; isolated from Schisandra chinensis, read-out: IC50 against α-glucosidase): 2.36 µM
Oc1cc(O)c2c(c1)O[C@H](c1ccc(O)c(O)c1)[C@H](O)C2 [(–)-Epicatechin] | no inhibitory activity | – | – | – | – | inhibitory value on α-glucosidase (α-glucosidase [1]): around 96%; inhibitory activity against α-glucosidase from the yeast (S. cerevisiae), in words [2]: showed inhibitory activity
C[C@H]1O[C@H](O[C@H]2[C@H](O)[C@@H](O)[C@@H](O[C@H]3[C@H](O)[C@@H](O)C(O)O[C@@H]3CO)O[C@@H]2CO)[C@H](O)[C@@H](O)[C@@H]1N[C@H]1C=C(CO)[C@@H](O)[C@H](O)[C@H]1O (some centres unmarked) [Acarbose] | very high inhibitory activity | – | – | – | – | inhibitory activity against α-glucosidase from the yeast (S. cerevisiae), in words [2]: no activity at all; IC50 [3]: 209 ± 0.96 µM
C=C(CCC(C)C1CCC2(C)C3CCC4C(C)(C)C(O)CCC45CC35CCC12C)C(C)C(=O)O (centres unmarked) [Ambolic acid (5), ambolic acid] | – | Mixed inhibition | 4.58 µM | 132.30 ± 13.9 µg/mL | 281 ± 29.5 µM | Inhibition Mode (α-glucosidase [4]; listed as 5): mixed-type inhibition
C=C(CCC(C)C1CCC2(C)C3CCC4C(C)(C)C(=O)CCC45CC35CCC12C)C(C)C(=O)O (centres unmarked) [Ambonic acid (3), ambonic acid] | – | Mixed inhibition | 6.42 µM | 42.45 ± 4.5 µg/mL | 90.6 ± 9.6 µM | Inhibition Mode (α-glucosidase [4]; listed as 3): mixed-type inhibition
CC(C)=CCC[C@@H](C)[C@H]1CC[C@@]2(C)[C@@H]3CC[C@H]4C(C)(C)[C@@H](O)CC[C@@]45C[C@@]35CC[C@]12C [Cycloartenol (2), cycloartenol] | – | Uncompetitive | – | 120.21 ± 11.2 µg/mL | 282 ± 26.3 µM | Inhibition Mode (α-glucosidase [4]; listed as 2): uncompetitive inhibition
C/C(=C\CC[C@@H](C)[C@H]1CC[C@@]2(C)[C@@H]3CC[C@H]4C(C)(C)[C@@H](O)CC[C@@]45C[C@@]35CC[C@]12C)C(=O)O [Mangiferolic acid (1), mangiferolic acid] | – | Uncompetitive | – | 12.38 ± 3.0 µg/mL | 27.1 ± 6.57 µM | Inhibition Mode (α-glucosidase [4]; listed as 1): uncompetitive inhibition
C/C(=C\CC[C@@H](C)[C@H]1CC[C@@]2(C)[C@@H]3CC[C@H]4C(C)(C)C(=O)CC[C@@]45C[C@@]35CC[C@]12C)C(=O)O [Mangiferonic acid (4), mangiferonic acid] | – | Mixed inhibition | 3.23 µM | 17.16 ± 2.98 µg/mL | 37.7 ± 6.55 µM | Inhibition Mode (α-glucosidase [4]; listed as 4): mixed-type inhibition
Cc1c(C)c2c(c(C)c1O)CCC(C)(C(=O)O)O2 (centres unmarked) [Trolox, reference compound] | – | – | – | 7.17 ± 0.13 µg/mL | 28.6 ± 0.52 µM | Antioxidant Activity IC50 ([5]; DPPH, propolis fractions P1 and P2): 6.76 ± 0.395 µg/mL
OCC(CO)N[C@H]1C[C@](O)(CO)[C@@H](O)[C@H](O)[C@H]1O [Voglibose] | very high inhibitory activity | – | – | – | – | IC50 [3]: 78.6 ± 1.27 µM

— article PMC6789647, “α-Glucosidase Inhibitory Activity of Cycloartane-Type Triterpenes Isolated from Indonesian Stingless Bee Propolis and Their Structure–Activity Relationship” (Pharmaceuticals, 2019)
